In the NIST ThermoML archive (doi:10.1021/acs.jced.7b00750):

How the values were obtained:
[1] = 100 kPa, Liquid, Vibrating tube method
[2] = xn = mol fraction of the nth substance listed; settings: 100 kPa, Liquid, Vibrating tube method, x2 = 0

O [water]
[1]
Settings | mass density [kg/m3]
274.15 K | 999.899
275.15 K | 999.94
276.15 K | 999.964
277.15 K | 999.972
278.15 K | 999.964
279.15 K | 999.94
280.15 K | 999.901
281.15 K | 999.848
282.15 K | 999.781
283.15 K | 999.699
323.15 K | 988.03
333.15 K | 983.191

O [water] + CNC(N)=O
[2]
Settings | mass density [kg/m3]
274.15 K | 999.899
275.15 K | 999.94
276.15 K | 999.964
277.15 K | 999.972
278.15 K | 999.964
279.15 K | 999.94
280.15 K | 999.901
281.15 K | 999.848
282.15 K | 999.781
283.15 K | 999.699
323.15 K | 988.03
333.15 K | 983.191
